# Reference: patent US6387885B1, “3′,3′-N-bis-desmethyl-3′-N-cycloalkyl erythromycin derivatives as LHRH antagonists” (Abbott Laboratories, priority 1998, dated 2002)
# Target: T1, LHRH rat pituitary receptor (Rattus norvegicus, UniProt P30969)
# T1 construct: from tissue; host or cells: rat pituitary
# T1 sequence (P30969 1-327): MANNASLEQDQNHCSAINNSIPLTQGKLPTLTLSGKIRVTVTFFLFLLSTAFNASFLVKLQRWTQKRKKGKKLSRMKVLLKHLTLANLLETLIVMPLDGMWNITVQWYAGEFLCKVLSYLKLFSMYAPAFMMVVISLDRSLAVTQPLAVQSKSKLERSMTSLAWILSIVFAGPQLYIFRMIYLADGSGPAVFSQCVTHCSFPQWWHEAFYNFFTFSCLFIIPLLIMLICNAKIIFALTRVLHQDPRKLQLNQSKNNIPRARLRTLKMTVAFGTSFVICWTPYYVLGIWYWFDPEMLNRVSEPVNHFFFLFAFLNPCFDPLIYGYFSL
# Experiment: LHRH rat pituitary receptor binding (in vitro)
# Details: method of Haviv et al. J. Med. Chem. 32: 2340-2344 (1989), read-out: pKI (receptor binding affinity; negative logarithm of the equilibrium dissociation constant) (converted)
# Experimental: Representative compounds of the present invention were evaluated in in vitro tests for LHRH rat pituitary receptor binding (pKI). The tests employed the methods detailed in F. Haviv, et al. J. Med. Chem., 32: 2340-2344 (1989). The receptor binding affinity (pKI) is the negative logarithms of the equilibrium dissociation constants.
row,SMILES,Ki
1,"CC[C@H]1OC(=O)[C@H](C)[C@@H](O[C@H]2C[C@@](C)(OC)[C@@H](O)[C@H](C)O2)[C@H](C)[C@@H](O[C@@H]2O[C@H](C)C[C@H](N3CCCCC3)[C@H]2O)[C@](C)(OC)C[C@@H](C)C(=O)[C@H](C)[C@H]2N(CCc3ccc(Cl)c(Cl)c3)C(=O)O[C@]12C [Example 3, 3′-Desamino-3′-N-piperidinyl-11-deoxy-11-[carboxy-(3,4-dichlorophenethylamino)]-6-O-methyl-erythromycin A 11,12-(cyclic carbamate)]",3.55 nM
2,"CCC1CCC(CC)N1[C@H]1C[C@@H](C)O[C@@H](O[C@@H]2[C@@H](C)[C@H](O[C@H]3C[C@@](C)(OC)[C@@H](O)[C@H](C)O3)[C@@H](C)C(=O)O[C@H](CC)[C@@]3(C)OC(=O)N(CCc4ccc(F)c(Cl)c4)[C@@H]3[C@@H](C)C(=O)[C@H](C)C[C@@]2(C)OC)[C@@H]1O (mixture of isomers) [Example 10, 3′-Desamino-3′-N-(2,5-diethylpyrrolidinyl)-11-deoxy-11-[carboxy-(3-chloro-4-fluorophenethylamino)]-6-O-methyl-erythromycin A 11,12-(cyclic carbamate)]",0.676 nM
3,"CC[C@H]1OC(=O)[C@H](C)[C@@H](O[C@H]2C[C@@](C)(OC)[C@@H](O)[C@H](C)O2)[C@H](C)[C@@H](O[C@@H]2O[C@H](C)C[C@H](N3C(C)CCCC3C)[C@H]2O)[C@](C)(OC)C[C@@H](C)C(=O)[C@H](C)[C@H]2N(CCc3ccc(Cl)c(Cl)c3)C(=O)O[C@]12C (single isomer, unassigned) [Example 7, 3′-Desamino-3′-N-(2,6-dimethylpiperidinyl)-11-deoxy-11-[carboxy-(3,4-dichlorophenethylamino)]-6-O-methyl-erythromycin A 11,12-(cyclic carbamate)]",2.57 nM
4,"CC[C@H]1OC(=O)[C@H](C)[C@@H](O[C@H]2C[C@@](C)(OC)[C@@H](O)[C@H](C)O2)[C@H](C)[C@@H](O[C@@H]2O[C@H](C)C[C@H](N3C(C)CCC3C)[C@H]2O)[C@](C)(OC)C[C@@H](C)C(=O)[C@H](C)[C@H]2N(CCc3ccc(Cl)c(Cl)c3)C(=O)O[C@]12C (single isomer, unassigned) [Example 5, 3′-Desamino-3′S-N-(2,5-dimethylpyrrolidinyl)-11-deoxy-11-[carboxy-(3,4-dichlorophenethylamino)]-6-O-methyl-erythromycin A 11,12-(cyclic carbamate)]",1.23 nM
5,"CC[C@H]1OC(=O)[C@H](C)[C@@H](O[C@H]2C[C@@](C)(OC)[C@@H](O)[C@H](C)O2)[C@H](C)[C@@H](O[C@@H]2O[C@H](C)C[C@H](N3C(C)CCCC3C)[C@H]2O)[C@](C)(OC)C[C@@H](C)C(=O)[C@H](C)[C@H]2N(CCc3ccc(F)c(Cl)c3)C(=O)O[C@]12C (single isomer, unassigned) [Example 8, 3′-Desamino-3′-N-(2,6-dimethylpiperidinyl)-11-deoxy-11-[carboxy-(3-chloro-4-fluorophenethylamino)]-6-O-methyl-erythromycin A 11,12-(cyclic carbamate)]",2.45 nM
6,"CCC1CCC(CC)N1[C@H]1C[C@@H](C)O[C@@H](O[C@@H]2[C@@H](C)[C@H](O[C@H]3C[C@@](C)(OC)[C@@H](O)[C@H](C)O3)[C@@H](C)C(=O)O[C@H](CC)[C@@]3(C)OC(=O)N(CCc4ccc(Cl)c(Cl)c4)[C@@H]3[C@@H](C)C(=O)[C@H](C)C[C@@]2(C)OC)[C@@H]1O (stereo partly drawn) [Example 9, 3′-Desamino-3′-N-(2,5-diethylpyrrolidinyl)-11-deoxy-11-[carboxy-(3,4-dichlorophenethylamino)]-6-O-methyl-erythromycin A 11,12-(cyclic carbamate)]",1.74 nM
7,"CC[C@H]1OC(=O)[C@H](C)[C@@H](O[C@H]2C[C@@](C)(OC)[C@@H](O)[C@H](C)O2)[C@H](C)[C@@H](O[C@@H]2O[C@H](C)C[C@H](N3CCCCC3)[C@H]2O)[C@](C)(OC)C[C@@H](C)C(=O)[C@H](C)[C@H]2N(CCc3ccc(F)c(Cl)c3)C(=O)O[C@]12C [Example 4, 3′-Desamino-3′-N-piperidinyl-11-deoxy-11-[carboxy-(3-chloro-4-fluorophenethylamino)]-6-O-methyl-erythromycin A 11,12-(cyclic carbamate)]",5.62 nM
8,"CC[C@H]1OC(=O)[C@H](C)[C@@H](O[C@H]2C[C@@](C)(OC)[C@@H](O)[C@H](C)O2)[C@H](C)[C@@H](O[C@@H]2O[C@H](C)C[C@H](N3C(C)CCC3C)[C@H]2O)[C@](C)(OC)C[C@@H](C)C(=O)[C@H](C)[C@H]2N(CCc3ccc(F)c(Cl)c3)C(=O)O[C@]12C (single isomer, unassigned) [Example 6, 3′-Desamino-3′-N-(2,5-dimethylpyrrolidinyl)-11-deoxy-11-[carboxy-(3-chloro-4-fluorophenethylamino)]-6-O-methyl-erythromycin A 11,12-(cyclic carbamate)]",0.759 nM
9,"CC[C@H]1OC(=O)[C@H](C)[C@@H](O[C@H]2C[C@@](C)(OC)[C@@H](O)[C@H](C)O2)[C@H](C)[C@@H](O[C@@H]2O[C@H](C)C[C@H](N3C(C4CC4)CCCC3C3CC3)[C@H]2O)[C@](C)(OC)C[C@@H](C)C(=O)[C@H](C)[C@H]2N(CCc3ccc(F)c(Cl)c3)C(=O)O[C@]12C (stereo partly drawn) [Example 11, 3′-Desamino-3′-N-(2,6-biscyclopropylpiperidinyl)-11-deoxy-11-[carboxy-(3-chloro-4-fluorophenethylamino)]-6-O-methyl-erythromycin A 11,12-(cyclic carbamate)]",1.17 nM
10,"CC[C@H]1OC(=O)[C@H](C)[C@@H](O[C@H]2C[C@@](C)(OC)[C@@H](O)[C@H](C)O2)[C@H](C)[C@@H](O[C@@H]2O[C@H](C)C[C@H](N3CCCC3)[C@H]2O)[C@](C)(OC)C[C@@H](C)C(=O)[C@H](C)[C@H]2N(CCc3ccc(Cl)c(Cl)c3)C(=O)O[C@]12C [Example 1, 3′-Desamino-(3′S)-N-pyrrolidinyl-11-deoxy-11-[carboxy-(3,4-dichlorophenethylamino)]-6-O-methyl-erythromycin A 11,12-(cyclic carbamate)]",1.82 nM

# System: not given
# Experiment: not given
# Details: not given
row,SMILES,melting point
1,"CC[C@H]1OC(=O)[C@H](C)[C@@H](O[C@H]2C[C@@](C)(OC)[C@@H](O)[C@H](C)O2)[C@H](C)[C@@H](O[C@@H]2O[C@H](C)C[C@H](N3C(C)CCC3C)[C@H]2O)[C@](C)(OC)C[C@@H](C)C(=O)[C@H](C)[C@H]2N(CCc3ccc(Cl)c(Cl)c3)C(=O)O[C@]12C (single isomer, unassigned) [Example 5, 3′-Desamino-3′S-N-(2,5-dimethylpyrrolidinyl)-11-deoxy-11-[carboxy-(3,4-dichlorophenethylamino)]-6-O-methyl-erythromycin A 11,12-(cyclic carbamate)]",258 to 260 °C
2,"CC[C@H]1OC(=O)[C@H](C)[C@@H](O[C@H]2C[C@@](C)(OC)[C@@H](O)[C@H](C)O2)[C@H](C)[C@@H](O[C@@H]2O[C@H](C)C[C@H](N3C(C)CCC3C)[C@H]2O)[C@](C)(OC)C[C@@H](C)C(=O)[C@H](C)[C@H]2N(CCc3ccc(F)c(Cl)c3)C(=O)O[C@]12C (single isomer, unassigned) [Example 6, 3′-Desamino-3′-N-(2,5-dimethylpyrrolidinyl)-11-deoxy-11-[carboxy-(3-chloro-4-fluorophenethylamino)]-6-O-methyl-erythromycin A 11,12-(cyclic carbamate)]",276 to 278 °C
